Data as given in patent publication US12084462B2, “Spiro bicyclic inhibitors of menin-MLL interaction” (Janssen Pharmaceutica NV, priority 2016, dated 2024).

tested on: MOLM14; test: Proliferation assay (spheroid assay) MOLM14; format: cell-based, human; settings: Homo sapiens, MOLM-14, 192 h, MOLM14 (MLL-AF9), 8 d, absolute IC50 from AUC of confluence; individual measurements (not averaged); read-out: (2) Spheroid assay MOLM14 (IC50 (μM))
Method: (§1) The anti-proliferative effect of menin/MLL protein/protein interaction inhibitor test compounds was assessed in human leukemia cell lines. The cell lines MV-4-11 and MOLM14 harbor MLL translocations and express the MLL fusion proteins MLL-AF4 and MLL-AF9, respectively, as well as the wildtype protein from the second allele. […] K562 and KG1 were used as a control cell lines containing two MLL wildtype alleles in order to exclude compounds that display general cytotoxic effects.
(§2) MV-4-11 and MOLM14 were cultured in RPMI-1640 (Sigma Aldrich) supplemented with 10% fetal bovine serum (HyClone), 2 mM L-glutamine (Sigma Aldrich) and 50 μg/ml gentamycin (Gibco). K562 were propagated in RPMI-1640 (Sigma Aldrich) supplemented with 20% fetal bovine serum (HyClone), 2 mM L-glutamine (Sigma Aldrich) and 50 μg/ml gentamycin (Gibco). KG1 were cultured in Iscove's MDM (Gibco) supplemented with 20% fetal bovine serum (HyClone), 2 mM L-glutamine (Sigma Aldrich) and 50 μg/ml gentamycin (Gibco).
(§3) In order to assess the anti-proliferative effects, 1,500 MV-4-11, 300 MOLM14, 750 K562 or 1,300 KG1 cells were seeded in 200 μl media per well in 96-well round bottom, ultra-low attachment plates (Costar, catalogue number 7007). Cell seeding numbers were chosen based on growth curves to ensure linear growth throughout the experiment. Test compounds were added at different concentrations and the DMSO content was normalized to 0.3%. Cells were incubated for 8 d at 37° C. and 5% CO2. Spheroid like growth was monitored in real-time by live-cell imaging (IncuCyteZOOM, Essenbio, 4× objective) acquiring one image every four hours for 8 d. Confluence (%) as a measure of spheroid size was determined using an integrated analysis tool.
(§4) In order to determine the cumulative effect of the test compounds over time, the area under the curve (AUC) in a plot of confluence against time was calculated. Confluence at the beginning of the experiment (t=0) was used as baseline for the AUC calculation.
(§5) Absolute IC50 values were calculated according to the following procedure: % Control=(AUC sample/AUC control)*100 AUC control=mean AUC of control values (cells without compound/DMSO as vehicle control)
(§6) A non-linear curve fit was applied using the least squares (ordinary) fit method to the plot of % control versus compound concentration. Based on this, the absolute IC50 value (half maximal inhibitory concentration of the test compound causing an anti-proliferative effect of 50% relative to the vehicle control) was calculated.

Row | IC50 [µM] | SMILES
1 | 7 | Cn1cc2c(n1)CCCC2N1CC2(CCN(c3ncnc4sc(CC(F)(F)F)cc34)C2)C1 (single isomer, unassigned) [Compound 138]

same assay, conditions: Homo sapiens, MOLM-14, MOLM14; averaged values; read-out: Spheroid assay MOLM14 (IC50 (μM))

Row | IC50 [µM] | SMILES
2 | > 15 | Cn1cc([C@@H](C2CCNCC2)N2CC3(CCN(c4ncnc5sc(CC(F)(F)F)cc45)C3)C2)cn1 [Compound 201]

tested on: MV-4-11; test: Proliferation assay (spheroid assay) MV-4-11; format: cell-based, human; settings: Homo sapiens, MV4-11, MV-4-11; averaged values; read-out: Spheroid assay MV-4-11 (IC50 (μM))
Method: as §1, §2, §3, §4, §5, §6

Row | IC50 [µM] | SMILES
3 | 4 | CO[C@@H]1CN[C@H](C(=O)N2CC3(C2)CN(c2ncnc4sc(CC(F)(F)F)cc24)C3)C1 [Compound 110]
4 | 0.33 | CC(C)C(C1CCNCC1)N1CC2(CCN(c3ncnc4sc(CC(F)(F)F)cc34)C2)C1 (centres unmarked) [Compound 148]
5 | 12.1 | NCCn1cc(CN2CC3(CCN(c4ncnc5sc(CC(F)(F)F)cc45)C3)C2)cn1 [Compound 77]
6 | 12.7 | Cn1cc([C@@H](C2CCNCC2)N2CC3(CCN(c4ncnc5sc(CC(F)(F)F)cc45)C3)C2)cn1 [Compound 201]
7 | 2.7 | CC(C)CN1CCC2(C1)CN(c1ncnc3sc(CC(F)(F)F)cc13)C2 [Compound 58]
8 | 3.4 | Cc1ccccc1CN1CC2(CCN(c3ncnc4sc(CC(F)(F)F)cc34)C2)C1 [Compound 45]
9 | 8.2 | C[C@H](C1CCNCC1)N1CC2(CCN(c3ncnc4sc(CC(F)(F)F)cc34)C2)C1 [Compound 147]
10 | 2.4 | C[C@@H](C1CCNCC1)N1CC2(CCN(c3ncnc4sc(CC(F)(F)F)cc34)C2)C1 [Compound 146]
11 | 0.2 | CC(C)C(C1CNC1)N1CC2(CCN(c3ncnc4sc(CC(F)(F)F)cc34)C2)C1 (centres unmarked) [Compound 222]
12 | 2.1 | Cc1ccc(CN2CC3(CCN(c4ncnc5sc(CC(F)(F)F)cc45)C3)C2)cc1 [Compound 49]
13 | 1.09 | Cc1ccc(CC(C2CNC2)N2CC3(CCN(c4ncnc5sc(CC(F)(F)F)cc45)C3)C2)cc1 (centres unmarked) [Compound 318]
14 | 3.2 | Cc1c([C@@H](C(C)C)N2CC3(CCN(c4ncnc5sc(CC(F)(F)F)cc45)C3)C2)cnn1C [Compound 173]
15 | 1.2 | CC[C@@H](C)[C@@H](c1cnn(C)c1)N1CC2(CCN(c3ncnc4sc(CC(F)(F)F)cc34)C2)C1 (single isomer, unassigned) [Compound 237]
16 | 9.3 | CO[C@H]1CN[C@H](C(=O)N2CC3(C2)CN(c2ncnc4sc(CC(F)(F)F)cc24)C3)C1 [Compound 111]
17 | 1.5 | CC(C)[C@H](c1cnn(C)c1)N1CC[C@]2(CCN(c3ncnc4sc(CC(F)(F)F)cc34)C2)C1 (single isomer, unassigned) [Compound 188]
18 | 2 | C[C@H](C1CNC1)N1CC2(CCN(c3ncnc4sc(CC(F)(F)F)cc34)C2)C1 [Compound 150]
19 | 4.23 | Fc1ccc(CCN2CC[C@@]3(CCN(c4ncnc5sc(CC(F)(F)F)cc45)C3)C2)cc1 (single isomer, unassigned) [Compound 298]
20 | 2.4 | FC(F)(F)Cc1cc2c(N3CCC4(CN(CC5CCNCC5)C4)C3)ncnc2s1 [Compound 311]
21 | 0.79 | CC(C)C(C1CCOCC1)N1CC2(CCN(c3ncnc4sc(CC(F)(F)F)cc34)C2)C1 (centres unmarked) [Compound 156]

Row | IC50 [µM] | SMILES
22 | 1.1 | COCCn1cc(C(C(C)C)N2CC3(CCN(c4ncnc5sc(CC(F)(F)F)cc45)C3)C2)cn1 (centres unmarked) [Compound 71]
23 | 2.4 | Cc1nn(C)cc1[C@@H](C(C)C)N1CC2(CCN(c3ncnc4sc(CC(F)(F)F)cc34)C2)C1 [Compound 166]
24 | 1.3 | CC(C)C(c1cnn(C)c1)N1CC[C@]2(CCN(c3ncnc4sc(CC(F)(F)F)cc34)C2)C1 (some centres unmarked) [Compound 186]
25 | 1.3 | CC(C)C[C@H](C1CCOCC1)N1CC2(CCN(c3ncnc4sc(CC(F)(F)F)cc34)C2)C1 [Compound 179]
26 | 1.2 | FC(F)(F)Cc1cc2c(N3CCC4(CN(CCc5ccccc5)C4)C3)ncnc2s1 [Compound 69]
27 | 3.7 | Fc1ccccc1CN1CC2(CCN(c3ncnc4sc(CC(F)(F)F)cc34)C2)C1 [Compound 54]
28 | 0.71 | CC[C@@H](C)[C@H](c1cnn(C)c1)N1CC2(CCN(c3ncnc4sc(CC(F)(F)F)cc34)C2)C1 (single isomer, unassigned) [Compound 235]
29 | 4.9 | FC(F)(F)Cc1cc2c(N3CCC4(CN(CCC5CCOCC5)C4)C3)ncnc2s1 [Compound 67]
30 | 0.73 | CC(Cc1ccc(C#N)cc1)N1CC2(CCN(c3ncnc4sc(CC(F)(F)F)cc34)C2)C1 (centres unmarked) [Compound 314]
31 | 4.1 | Cc1cccc(CN2CC3(CCN(c4ncnc5sc(CC(F)(F)F)cc45)C3)C2)c1 [Compound 46]
32 | 1.9 | CC(C)C[C@@H](C1CCOCC1)N1CC2(CCN(c3ncnc4sc(CC(F)(F)F)cc34)C2)C1 [Compound 180]
33 | 1.4 | FC(F)(F)Cc1cc2c(N3CC[C@]4(CCN(CC5CCOCC5)C4)C3)ncnc2s1 [Compound 187]
34 | 6.1 | CC(c1cn[nH]c1)N1CC2(CCN(c3ncnc4sc(CC(F)(F)F)cc34)C2)C1 (centres unmarked) [Compound 223]
35 | 1.1 | COc1ccc(CC(C)N2CC3(CCN(c4ncnc5sc(CC(F)(F)F)cc45)C3)C2)cc1 (centres unmarked) [Compound 321]
36 | 2.9 | Cc1c(C(C(C)C)N2CC3(CCN(c4ncnc5sc(CC(F)(F)F)cc45)C3)C2)cnn1C (centres unmarked) [Compound 172]
37 | 1.3 | CCC(C1CNC1)N1CC2(CCN(c3ncnc4sc(CC(F)(F)F)cc34)C2)C1 (centres unmarked) [Compound 259]
38 | 8.1 | O=C([C@H]1CC2(CC2)CN1)N1CC2(C1)CN(c1ncnc3sc(CC(F)(F)F)cc13)C2 [Compound 109]
39 | 0.75 | CC(Cc1ccc(O)cc1)N1CC2(CCN(c3ncnc4sc(CC(F)(F)F)cc34)C2)C1 (centres unmarked) [Compound 323]
40 | 1.83 | CC(C)CCN1CC[C@]2(CCN(c3ncnc4sc(CC(F)(F)F)cc34)C2)C1 (single isomer, unassigned) [Compound 294]

Row | IC50 [µM] | SMILES
41 | 4.3 | CC(Cc1cc(F)cc(F)c1)N1CC2(CCN(c3ncnc4sc(CC(F)(F)F)cc34)C2)C1 (centres unmarked) [Compound 170]
42 | > 15 | CN1CC2(CC2)C[C@H]1C(=O)N1CC2(C1)CN(c1ncnc3sc(CC(F)(F)F)cc13)C2 [Compound 108]
43 | 7.2 | CC(C)[C@@H](c1cnn(C)c1)N1CC2(CCN(c3ncnc4sc(CC(F)(F)F)cc34)C2)C1 [Compound 203]
44 | 4.9 | Fc1cccc(CN2CC3(CCN(c4ncnc5sc(CC(F)(F)F)cc45)C3)C2)c1 [Compound 56]
45 | 1.9 | CC(C)C[C@@H](C1CNC1)N1CC2(CCN(c3ncnc4sc(CC(F)(F)F)cc34)C2)C1 [Compound 213]
46 | 3.1 | COc1ccccc1CC(C)N1CC2(CCN(c3ncnc4sc(CC(F)(F)F)cc34)C2)C1 (centres unmarked) [Compound 171]
47 | 1.7 | CC(Cc1ccccc1F)N1CC2(CCN(c3ncnc4sc(CC(F)(F)F)cc34)C2)C1 (centres unmarked) [Compound 322]
48 | 4.89 | FC(F)(F)Cc1cc2c(N3CC[C@@]4(CCN(CCc5ccccc5)C4)C3)ncnc2s1 (single isomer, unassigned) [Compound 296]
49 | 3.5 | CC(C)[C@@H](C1CCNCC1)N1CC2(CCN(c3ncnc4sc(CC(F)(F)F)cc34)C2)C1 [Compound 169]
50 | 3.18 | Cn1cc(CN2CC[C@]3(CCN(c4ncnc5sc(CC(F)(F)F)cc45)C3)C2)cn1 (single isomer, unassigned) [Compound 299]
51 | 1.37 | COc1cccc(CC(C)N2CC3(CCN(c4ncnc5sc(CC(F)(F)F)cc45)C3)C2)c1 (centres unmarked) [Compound 320]
52 | 1.9 | Cc1ccc(CC(C)N2CC3(CCN(c4ncnc5sc(CC(F)(F)F)cc45)C3)C2)cc1 (centres unmarked) [Compound 324]
53 | 4.2 | Cc1nn(C)cc1C(C(C)C)N1CC2(CCN(c3ncnc4sc(CC(F)(F)F)cc34)C2)C1 (centres unmarked) [Compound 161]
54 | 3.1 | CC(C)[C@@H](C1CCOCC1)N1CC2(CCN(c3ncnc4sc(CC(F)(F)F)cc34)C2)C1 [Compound 162]
55 | 1.67 | CC(C)CCN1CC[C@@]2(CCN(c3ncnc4sc(CC(F)(F)F)cc34)C2)C1 (single isomer, unassigned) [Compound 293]
56 | 1.3 | CC(Cc1cccc(F)c1)N1CC2(CCN(c3ncnc4sc(CC(F)(F)F)cc34)C2)C1 (centres unmarked) [Compound 183]
57 | 3.6 | CC(C)CC(C1CCC2(CCCC2)OC1)N1CC2(CCN(c3ncnc4sc(CC(F)(F)F)cc34)C2)C1 (single isomer, unassigned) [Compound 313]
58 | 1.3 | FC(F)(F)Cc1cc2c(N3CC[C@@]4(CCN(CC5CCOCC5)C4)C3)ncnc2s1 [Compound 185]
59 | > 15 | Cn1cc([C@H](C2CCNCC2)N2CC3(CCN(c4ncnc5sc(CC(F)(F)F)cc45)C3)C2)cn1 [Compound 202]
